Assays:
Assay type in all cases: in vivo
[1] = test system: ragweed (common ragweed, Ambrosia elatior); assay: Test A postemergence; conditions: Ambrosia artemisiifolia, post-emergence, 240 h, 125 g ai/ha, postemergence, visual injury vs untreated controls after approx. 10 d; 0 = no effect, 100 = complete control; read-out: Ragweed plant response rating (0 to 100 scale)
How it was run: (§1)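 Treatment is preemergence as a directed soil spray after planting, or postemergence at the one- to two-leaf stage, with test chemical in a non-phytotoxic solvent mixture plus surfactant. Plants stay in the greenhouse about 10 d before visual injury scoring on a 0 to 100 scale versus untreated controls.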

[2] = test system: giant foxtail (Setaria faberii); assay: Test A postemergence; conditions: Setaria faberi, post-emergence, 240 h
How it was run: as §1

[3] = test system: ryegrass, Italian (Italian ryegrass, Lolium multiflorum); assay: Test A postemergence; conditions: Lolium multiflorum, post-emergence, 240 h, 125 g ai/ha, postemergence, visual injury vs untreated controls after approx. 10 d; 0 = no effect, 100 = complete control; read-out: Ryegrass, Italian plant response rating (0 to 100 scale)
How it was run: as §1

corn (Zea mays) = assay: Test A postemergence; conditions: Zea mays, post-emergence, 240 h
How it was run: as §1

[4] = test system: blackgrass (Alopecurus myosuroides); assay: Test A postemergence; conditions: Alopecurus myosuroides, post-emergence, 240 h
How it was run: as §1

Kochia (Kochia scoparia) [5] = assay: Test A postemergence; conditions: Bassia scoparia, post-emergence, 240 h
How it was run: as §1

[6] = test system: barnyardgrass (Echinochloa crus-galli); assay: Test A postemergence; conditions: Echinochloa crus-galli, post-emergence, 240 h
How it was run: as §1

[7] = test system: pigweed (Amaranthus retroflexus); assay: Test A postemergence; conditions: Amaranthus retroflexus, post-emergence, 240 h, 125 g ai/ha, postemergence, visual injury vs untreated controls after approx. 10 d; 0 = no effect, 100 = complete control; read-out: Pigweed plant response rating (0 to 100 scale)
How it was run: as §1

[8] = test system: wheat (Triticum aestivum); assay: Test A postemergence; conditions: Triticum aestivum, post-emergence, 240 h, 125 g ai/ha, postemergence, visual injury vs untreated controls after approx. 10 d; 0 = no effect, 100 = complete control; read-out: Wheat plant response rating (0 to 100 scale)
How it was run: as §1

[9] = test system: Galium (catchweed bedstraw, Galium aparine); assay: Test A postemergence; conditions: Galium, post-emergence, 240 h
How it was run: as §1

[10] = test system: ragweed (common ragweed, Ambrosia elatior); assay: Test A preemergence; conditions: Ambrosia artemisiifolia, pre-emergence, 240 h, 0 to 100 scale where 0 is no effect and 100 is complete control, read-out: Ragweed plant response rating
How it was run: as §1

[11] = test system: giant foxtail (Setaria faberii); assay: Test A preemergence; conditions: Setaria faberi, pre-emergence, 240 h, 0 to 100 scale where 0 is no effect and 100 is complete control, read-out: Foxtail, Giant plant response rating
How it was run: as §1

[12] = test system: ryegrass, Italian (Italian ryegrass, Lolium multiflorum); assay: Test A preemergence; conditions: Lolium multiflorum, pre-emergence, 240 h, 0 to 100 scale where 0 is no effect and 100 is complete control, read-out: Ryegrass, Italian plant response rating
How it was run: as §1

Kochia (Kochia scoparia) [13] = assay: Test A preemergence; conditions: Bassia scoparia, pre-emergence, 240 h, 0 to 100 scale where 0 is no effect and 100 is complete control, read-out: Kochia plant response rating
How it was run: as §1

[14] = test system: barnyardgrass (Echinochloa crus-galli); assay: Test A preemergence; conditions: Echinochloa crus-galli, pre-emergence, 240 h, 0 to 100 scale where 0 is no effect and 100 is complete control, read-out: Barnyardgrass plant response rating
How it was run: as §1

[15] = test system: pigweed (Amaranthus retroflexus); assay: Test A preemergence; conditions: Amaranthus retroflexus, pre-emergence, 240 h, 0 to 100 scale where 0 is no effect and 100 is complete control, read-out: Pigweed plant response rating
[16] = test system: ducksalad (Heteranthera limosa); assay: Test B flooded paddy test; conditions: Heteranthera limosa, 250 g ai/ha, Flood; 0 to 100 scale where 0 is no effect and 100 is complete control; read-out: Ducksalad plant response rating
How it was run: (§2)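 Rating scale 0–100 (visual, vs untreated controls) after a 13–15 d greenhouse period; application to the flood layer, 3 cm above soil and maintained; plants at 2-leaf stage when treated.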

[17] = test system: sedge, umbrella (small-flower umbrella sedge, Cyperus difformis); assay: Test B flooded paddy test; conditions: Cyperus difformis, 250 g ai/ha, Flood; 0 to 100 scale where 0 is no effect and 100 is complete control; read-out: Sedge, Umbrella plant response rating
How it was run: as §2

[18] = test system: barnyardgrass (Echinochloa crus-galli); assay: Test B flooded paddy test; conditions: Echinochloa crus-galli, 250 g ai/ha, Flood; 0 to 100 scale where 0 is no effect and 100 is complete control; read-out: Barnyardgrass plant response rating
How it was run: as §2

rice (Oryra sativa) = assay: Test B flooded paddy test; conditions: Oryza sativa, 250 g ai/ha, Flood; 0 to 100 scale where 0 is no effect and 100 is complete control; read-out: Rice plant response rating
How it was run: as §2

[19] = 125 g ai/ha, preemergence, visual injury rating, approximately 10 d

For `CSc1ccccc1NC(=O)[C@H]1C(=O)N(C)C[C@@H]1c1ccc(C)cc1` [Compound 1187], the pest or weed control at 125 g/ha [1] was 0%, the pest or weed control at 125 g/ha ([2]; 125 g ai/ha, postemergence, visual injury vs untreated controls after approx. 10 d, 0 = no effect, 100 = complete control, read-out: Foxtail, Giant plant response rating (0 to 100 scale)) was 80% and the pest or weed control at 31 g/ha ([2]; Postemergence, 31 g ai/ha, visual injury after approx. 10 d, 0 to 100 scale, 0 no effect, 100 complete control, read-out: Plant response rating, Foxtail, Giant) was 40%. It also gave a pest or weed control at 125 g/ha [3] of 20%, a plant injury at 125 g/ha (corn (Zea mays); 125 g ai/ha, postemergence, visual injury vs untreated controls after approx. 10 d, 0 = no effect, 100 = complete control, read-out: Corn plant response rating (0 to 100 scale)) of 0% and a Corn plant response rating (crop injury, 0 = no effect, 100 = complete kill) at 31 g/ha (corn (Zea mays); Postemergence, 31 g ai/ha, visual injury after approx. 10 d, 0 to 100 scale, 0 no effect, 100 complete control) of 0%. It also gave a pest or weed control at 125 g/ha ([4]; 125 g ai/ha, postemergence, visual injury vs untreated controls after approx. 10 d, 0 = no effect, 100 = complete control, read-out: Blackgrass plant response rating (0 to 100 scale)) of 40%, a pest or weed control at 31 g/ha ([4]; Postemergence, 31 g ai/ha, visual injury after approx. 10 d, 0 to 100 scale, 0 no effect, 100 complete control, read-out: Plant response rating, Blackgrass) of 0% and a pest or weed control at 125 g/ha (Kochia (Kochia scoparia) [5]; 125 g ai/ha, postemergence, visual injury vs untreated controls after approx. 10 d, 0 = no effect, 100 = complete control, read-out: Kochia plant response rating (0 to 100 scale)) of 20%. It also gave a pest or weed control at 31 g/ha (Kochia (Kochia scoparia) [5]; Postemergence, 31 g ai/ha, visual injury after approx. 10 d, 0 to 100 scale, 0 no effect, 100 complete control, read-out: Plant response rating, Kochia) of 0%, a pest or weed control at 125 g/ha ([6]; 125 g ai/ha, postemergence, visual injury vs untreated controls after approx. 10 d, 0 = no effect, 100 = complete control, read-out: Barnyardgrass plant response rating (0 to 100 scale)) of 100% and a pest or weed control at 31 g/ha ([6]; Postemergence, 31 g ai/ha, visual injury after approx. 10 d, 0 to 100 scale, 0 no effect, 100 complete control, read-out: Plant response rating, Barnyardgrass) of 20%. For the same molecule, the pest or weed control at 125 g/ha [7] was 0%, the plant injury at 125 g/ha [8] was 20% and the pest or weed control at 125 g/ha ([9]; 125 g ai/ha, postemergence, visual injury vs untreated controls after approx. 10 d, 0 = no effect, 100 = complete control, read-out: Galium plant response rating (0 to 100 scale)) was 50%. For the same molecule, the pest or weed control at 31 g/ha ([9]; Postemergence, 31 g ai/ha, visual injury after approx. 10 d, 0 to 100 scale, 0 no effect, 100 complete control, read-out: Plant response rating, Galium) was 20%, the pest or weed control at 31 g/ha ([10]; 31 g ai/ha, Preemergence) was 0% and the pest or weed control at 125 g/ha [10, 19] was 50%. For the same molecule, the pest or weed control at 31 g/ha ([11]; 31 g ai/ha, Preemergence) was 90%, the pest or weed control at 125 g/ha [11, 19] was 100% and the pest or weed control at 31 g/ha ([12]; 31 g ai/ha, Preemergence) was 0%. It also gave a pest or weed control at 125 g/ha [12, 19] of 40%, a pest or weed control at 31 g/ha (Kochia (Kochia scoparia) [13]; 31 g ai/ha, Preemergence) of 50% and a pest or weed control at 125 g/ha (Kochia (Kochia scoparia) [13]; [19]) of 70%. For the same molecule, the pest or weed control at 31 g/ha ([14]; 31 g ai/ha, Preemergence) was 70%, the pest or weed control at 125 g/ha [14, 19] was 100% and the pest or weed control at 31 g/ha ([15]; 31 g ai/ha, Preemergence) was 0%. For the same molecule, the pest or weed control at 125 g/ha [15, 19] was 20%, the pest or weed control at 250 g/ha [16] was 85% and the pest or weed control at 250 g/ha [17] was 0%. It also gave a pest or weed control at 250 g/ha [18] of 60% and a pest or weed control at 250 g/ha (rice (Oryra sativa)) of 0%.
